# According to publication PMC10564737, “Structure-based design of a phosphotyrosine-masked covalent ligand targeting the E3 ligase SOCS2” (Nature Communications, 2023):
# Values joined by “and” are separate entries in the source; they are usually repeats but may differ in a detail not shown here. Equal values may be shown once.
# Biological target: T1, SBC2 (Homo sapiens, UniProt O14508)
# T1 construct: SOCS2 (amino acids 32–198); His6 (N, cleaved yes); made in house; host or cells: E. coli BL21(DE3)
# Test: Covalent fluorescence polarization (FP) probe displacement assay
# Type: binding
# From the text: With the specific covalent modification of Cys111 established, we decided to fully characterize MN551 as a covalent SOCS2 inhibitor. […] (Fig. 2g, h, Supplementary Fig. 9). Due to the covalent nature of the competing inhibitor, a time-dependent reduction in the fraction of protein-bound probe is observed. […] This value illustrates reasonable specificity for a covalent inhibitor, with nonetheless scope for future optimization. In addition to characterizing the kinetic covalency parameters, we have also assessed the stability of the MN551 by monitoring its reactivity (half-life >70 min) with reduced glutathione (GSH) (Supplementary Fig. 10)[35].
# To monitor the SBC2-ligand binding kinetics we designed a fluorescein-labeled small-molecule probe - compound 26. The fluorescence polarization (anisotropy) of a threefold serial dilution of 50 µM SBC2 in 10 nM of the probe in 100 mM HEPES pH 7.5, 50 mM NaCl, 0.5 mM TCEP, 2% DMSO was measured to determine the KL (Supplementary Fig. 9A) (BMG Labtech PHERAstar – firmware v1.33). Protein titration and the curves were fitted using GraphPad Prism 9, using one-site fitting models to determine the probe binding constant, KL. Samples were run in triplicate in 384 well plates, using a total volume per well of 16 μL. The bound fraction of the probe is measure using the equation:1 Fb=Af−A/Af−Ab Where,
# A time-dependent reduction in probe anisotropy were measured for a 2-fold serial dilution of […] compound MN551 in 10 nM probe +300 μM SBC2. To determine the initial reversible binding affinity, the initial bound fraction of the probe at time = 0, Fbo (the y-intercept in Fb v/s Time plot, Supplementary Fig. 9B) was plotted against MN551 concentration, and the obtained IC50 is then converted to Ki (Supplementary Fig. 9C)[17]. The slope from Fb versus time graph when divided by Fbo gives rate of covalency, kobs. A plot of kobs v/s MN551 concentration using Michaelis–Menten model of GraphPad Prism 9, provides the parameters kinact (maximum potential rate of inactivation) and KI (concentration of MN551 at which kobs = kinact/2) (Supplementary Fig. 9D, E).
# The observed first-order rate constant, kobs is related to KI and kinact by the equation:2 kobs=kinactI/KI+I
# At [I]«[KI] the above equation is converted to3 […]
# The slope from the plot of kobs against concentration of MN551 gives us the covalent efficiency parameter kinact/KI (Supp Fig. 9F)[30],[33].
# [1] = MN551 260.308 nM, Cycle 12 (55 min)
# [2] = MN551 260.308 nM, Cycle 19 (90 min), n=1
# [3] = MN551 364.432 nM, Cycle 6 (25 min)
# [4] = MN551 364.432 nM, Cycle 12 (55 min)
# [5] = MN551 364.432 nM, Cycle 19 (90 min), n=1
# [6] = MN551 510.204 nM, Cycle 6 (25 min)
# [7] = MN551 510.204 nM, Cycle 12 (55 min)
# [8] = MN551 510.204 nM, Cycle 19 (90 min), n=1
# [9] = MN551 714.286 nM, Cycle 6 (25 min)
# [10] = MN551 714.286 nM, Cycle 12 (55 min)
# [11] = MN551 714.286 nM, Cycle 19 (90 min), n=1
# [12] = MN551 781.25 nM, Cycle 6 (25 min)
# [13] = MN551 1000 nM, Cycle 6 (25 min)
# [14] = MN551 1000 nM, Cycle 12 (55 min)
# [15] = MN551 1000 nM, Cycle 19 (90 min), n=1
# T1 sequence (O14508 32-198): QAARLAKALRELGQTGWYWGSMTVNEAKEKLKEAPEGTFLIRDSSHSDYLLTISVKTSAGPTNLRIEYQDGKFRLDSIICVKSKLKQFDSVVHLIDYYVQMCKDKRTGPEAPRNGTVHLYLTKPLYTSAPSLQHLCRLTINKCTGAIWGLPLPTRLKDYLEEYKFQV
# T1 sequence (Q15370 1-104 partner limits assumed): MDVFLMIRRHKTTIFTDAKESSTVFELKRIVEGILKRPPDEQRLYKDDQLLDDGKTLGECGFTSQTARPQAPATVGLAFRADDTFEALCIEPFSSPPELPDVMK
# T1 sequence (Q15369 17-112 partner limits assumed): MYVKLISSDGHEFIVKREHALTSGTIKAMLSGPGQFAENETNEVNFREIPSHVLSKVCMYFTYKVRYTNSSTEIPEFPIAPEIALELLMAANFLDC
compound,measurement,setting,value
O=C(CCl)Nc1cccc(CNC(=O)[C@H](Cc2ccc(OP(=O)(O)O)cc2)NC(=O)Cc2ccc(F)cc2)c1 [MN551],Fb,"MN551 260.308 nM, Cycle 6 (25 min)",0.9065 and 0.9342 and 0.9573
same,Anisotropy,[1],262.5 and 259.9 and 257.4
same,Fb,[1],0.8574 and 0.8591 and 0.8311
same,"Anisotropy data 485,520,520",[2],254.9 and 255 and 252.4
same,"Anisotropy normalised (0 nM MN551 = 1, free probe = 0)",[2],0.8373 and 0.852 and 0.8299
same,"Anisotropy normalised (0 nM MN551 = 1, free probe = 0)","MN551 260.308 nM, Cycle 20 (95 min), n=1",0.8182 and 0.7955 and 0.8068
same,Anisotropy based on Raw Data (485),"MN551 364.432 nM, Cycle 7 (30 min)",266.3 and 261.1 and 263
same,"Normalised anisotropy (0 nM MN551 = 1, free probe = 0)","MN551 364.432 nM, Cycle 13 (60 min), n=1",0.8082 and 0.788 and 0.7925
same,"Normalised anisotropy (0 nM MN551 = 1, free probe = 0)","MN551 364.432 nM, Cycle 14 (65 min), n=1",0.8132 and 0.8023 and 0.7716
same,"Normalised anisotropy (0 nM MN551 = 1, free probe = 0)","MN551 364.432 nM, Cycle 15 (70 min), n=1",0.8109 and 0.8027 and 0.7817
same,"Fb, fraction bound","MN551 364.432 nM, Cycle 3 (10 min)",0.8953 and 0.9033 and 0.8725
same,"Anisotropy data 485,520,520",[3],261.2 and 252.2 and 253.6
same,Fb,[3],0.8702 and 0.8783 and 0.9647
same,Anisotropy,[4],258 and 255.4 and 255.3
same,Fb,[4],0.8155 and 0.8159 and 0.8109
same,"Anisotropy data 485,520,520",[5],251.5 and 248.8 and 245.6
same,"Anisotropy normalised (0 nM MN551 = 1, free probe = 0)",[5],0.8046 and 0.79 and 0.7638
same,"Anisotropy normalised (0 nM MN551 = 1, free probe = 0)","MN551 364.432 nM, Cycle 20 (95 min), n=1",0.7592 and 0.7548 and 0.7585
same,Anisotropy based on Raw Data (485),"MN551 390.625 nM, Cycle 7 (30 min)",269.8 and 271.4 and 267.4
same,"Fb, fraction bound","MN551 390.625 nM, Cycle 2 (5 min)",0.9917 and 0.9704 and 0.9496
same,"Fb, fraction bound","MN551 390.625 nM, Cycle 3 (10 min)",0.9862 and 0.9672 and 0.9437
same,Anisotropy,"MN551 390.625 nM, Cycle 12 (55 min)",270.6 and 267.1 and 265.1
same,Anisotropy based on Raw Data (485),"MN551 510.204 nM, Cycle 7 (30 min)",261.7 and 259.3 and 261
same,Anisotropy based on Raw Data (485),"MN551 510.204 nM, Cycle 8 (35 min)",261.5 and 258.9 and 258.8
same,"Normalised anisotropy (0 nM MN551 = 1, free probe = 0)","MN551 510.204 nM, Cycle 13 (60 min), n=1",0.7484 and 0.7226 and 0.7442
same,"Normalised anisotropy (0 nM MN551 = 1, free probe = 0)","MN551 510.204 nM, Cycle 14 (65 min), n=1",0.7755 and 0.7213 and 0.7092
same,"Normalised anisotropy (0 nM MN551 = 1, free probe = 0)","MN551 510.204 nM, Cycle 15 (70 min), n=1",0.7476 and 0.7154 and 0.7087
same,"Fb, fraction bound","MN551 510.204 nM, Cycle 3 (10 min)",0.8721 and 0.8651 and 0.8107
same,"Anisotropy data 485,520,520",[6],257.3 and 244.3 and 249.4
same,Fb,[6],0.8302 and 0.8538 and 0.9038
same,Anisotropy,[7],252.2 and 248.3 and 248.9
same,Fb,[7],0.7614 and 0.7478 and 0.7495
same,"Anisotropy data 485,520,520",[8],243.6 and 240.1 and 238.9
same,"Anisotropy normalised (0 nM MN551 = 1, free probe = 0)",[8],0.7286 and 0.703 and 0.6987
same,"Anisotropy normalised (0 nM MN551 = 1, free probe = 0)","MN551 510.204 nM, Cycle 20 (95 min), n=1",0.6867 and 0.6831 and 0.6676
same,Anisotropy based on Raw Data (485),"MN551 714.286 nM, Cycle 7 (30 min)",257.5 and 256.2 and 255.9
same,Anisotropy based on Raw Data (485),"MN551 714.286 nM, Cycle 8 (35 min)",256 and 254.7 and 255.3
same,"Normalised anisotropy (0 nM MN551 = 1, free probe = 0)","MN551 714.286 nM, Cycle 14 (65 min), n=1",0.7189 and 0.6657 and 0.6727
same,"Normalised anisotropy (0 nM MN551 = 1, free probe = 0)","MN551 714.286 nM, Cycle 15 (70 min), n=1",0.6832 and 0.6708 and 0.6558
same,"Fb, fraction bound","MN551 714.286 nM, Cycle 3 (10 min)",0.8072 and 0.8019 and 0.7869
same,"Anisotropy data 485,520,520",[9],249.8 and 245.7 and 246.8
same,Fb,[9],0.8082 and 0.8312 and 0.8793
same,Anisotropy,[10],245.4 and 244 and 241.6
same,Fb,[10],0.698 and 0.7066 and 0.6795
same,Fb,"MN551 714.286 nM, Cycle 13 (60 min)",0.6773 and 0.6691 and 0.6737
same,"Anisotropy data 485,520,520",[11],235.3 and 235.8 and 229.2
same,"Anisotropy normalised (0 nM MN551 = 1, free probe = 0)",[11],0.6487 and 0.66 and 0.6045
same,"Anisotropy normalised (0 nM MN551 = 1, free probe = 0)","MN551 714.286 nM, Cycle 20 (95 min), n=1",0.6238 and 0.6124 and 0.601
same,Anisotropy based on Raw Data (485),"MN551 781.25 nM, Cycle 7 (30 min)",264.8 and 264.3 and 257.5
same,"Fb, fraction bound","MN551 781.25 nM, Cycle 2 (5 min)",0.8861 and 0.914 and 0.9072
same,"Fb, fraction bound","MN551 781.25 nM, Cycle 3 (10 min)",0.8842 and 0.8716 and 0.861
same,"Anisotropy data 485,520,520",[12],261.7 and 267.5 and 267.1
same,Fb,[12],0.8257 and 0.8639
same,Anisotropy,"MN551 781.25 nM, Cycle 12 (55 min)",254.6 and 253.4 and 251.5
same,Anisotropy based on Raw Data (485),"MN551 1000 nM, Cycle 7 (30 min)",254.7 and 249.8 and 251.7
same,Anisotropy based on Raw Data (485),"MN551 1000 nM, Cycle 8 (35 min)",251.7 and 250.9 and 246
same,"Normalised anisotropy (0 nM MN551 = 1, free probe = 0)","MN551 1000 nM, Cycle 14 (65 min), n=1",0.5934 and 0.6045 and 0.5749
same,"Normalised anisotropy (0 nM MN551 = 1, free probe = 0)","MN551 1000 nM, Cycle 15 (70 min), n=1",0.5741 and 0.5664 and 0.5538
same,"Fb, fraction bound","MN551 1000 nM, Cycle 3 (10 min)",0.7627 and 0.7851 and 0.7345
same,"Anisotropy data 485,520,520",[13],247.9 and 241.8 and 240.6
same,Fb,[13],0.7763 and 0.812
same,Anisotropy,[14],234.4 and 236.4 and 233.2
same,Fb,[14],0.5955 and 0.6337 and 0.5988
same,Fb,"MN551 1000 nM, Cycle 13 (60 min)",0.5631 and 0.5917 and 0.6014
same,"Anisotropy data 485,520,520",[15],220.4 and 223.8 and 219.7
same,"Anisotropy normalised (0 nM MN551 = 1, free probe = 0)",[15],0.5053 and 0.54 and 0.5121
same,"Anisotropy normalised (0 nM MN551 = 1, free probe = 0)","MN551 1000 nM, Cycle 20 (95 min), n=1",0.4971 and 0.4767 and 0.4821
